The results in this text go back to patent US20230416228A1 (Forkhead Biotherapeutics, Inc., priority 2020, published 2023).

Molecules are shown by their SMILES. pIC50: −log10 of the molar value. Where only a bound is given, the exact number is not on record here.

This experiment has as its target T1, human FOXO1 (constitutively active form Thr24Ala, Ser256Ala, Ser319Ala) (Homo sapiens, UniProt Q12778, S256A/S319A/T24A).
T1 construct: expressed in transfected cells; host or cells: HEK293 cells transfected with pcDNA3.1 plasmid
Description: FOXO1 inhibitor activity assay: cell-based transcriptional (luciferase) reporter assay in HEK293 cells. The following applies: HEK293 cells transfected with insulin response element firefly luciferase reporter, FOXO1 and Renilla luciferase; 10-point dose response 50 μM to 2.5 nM; 24 hours. The procedure, abridged: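 IC50 and maximal inhibition were fitted by 4-parameter logistic regression on normalized firefly/Renilla luciferase ratios. The 0% reference used RFP in place of FOXO1, and the 100% reference was DMSO-only with all plasmids.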
A general note: In a reporter assay the amount or activity of a reporter protein is the signal.

T1 sequence (Q12778 whole entry T24A/S256A/S319A): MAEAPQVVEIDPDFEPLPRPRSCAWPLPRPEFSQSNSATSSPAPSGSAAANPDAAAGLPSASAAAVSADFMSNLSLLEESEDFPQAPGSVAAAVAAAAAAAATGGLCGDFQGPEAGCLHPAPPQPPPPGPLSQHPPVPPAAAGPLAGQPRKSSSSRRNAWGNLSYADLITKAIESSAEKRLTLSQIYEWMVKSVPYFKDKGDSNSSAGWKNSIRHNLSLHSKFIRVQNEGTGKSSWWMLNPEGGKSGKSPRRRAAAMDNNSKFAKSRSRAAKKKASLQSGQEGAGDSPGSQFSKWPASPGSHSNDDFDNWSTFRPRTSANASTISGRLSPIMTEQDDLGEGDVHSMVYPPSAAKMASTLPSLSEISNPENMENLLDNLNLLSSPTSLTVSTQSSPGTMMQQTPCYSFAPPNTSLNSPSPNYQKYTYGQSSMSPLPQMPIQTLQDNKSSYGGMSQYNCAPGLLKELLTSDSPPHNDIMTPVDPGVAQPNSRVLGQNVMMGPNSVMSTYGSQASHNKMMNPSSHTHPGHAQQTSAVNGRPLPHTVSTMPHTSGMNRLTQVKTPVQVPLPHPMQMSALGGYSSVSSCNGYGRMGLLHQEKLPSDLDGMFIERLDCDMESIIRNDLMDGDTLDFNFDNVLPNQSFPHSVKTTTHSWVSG

For orientation: pIC50 means the negative decadic logarithm of the IC50, by convention in mol/L. Lower therefore signals a large IC50. `O=C(Nc1cc(-c2nc3cc(F)ccc3[nH]2)[nH]n1)c1ccc(N2CCC(O)CC2)nc1` [Compound A-81, N-[5-(5-fluoro-1H-benzimidazol-2-yl)-1H-pyrazol-3-yl]-6-(4-hydroxy-1-piperidyl)pyridine-3-carboxamide] showed a pIC50 of 6.52 to 7.00.
Turning to `N#Cc1cc(C(=O)Nc2cc(-c3nc4ccccc4[nH]3)[nH]n2)ccc1OCCO` [Compound A-144, N-[5-(1H-benzimidazol-2-yl)-1H-pyrazol-3-yl]-3-cyano-4-(2-hydroxy-ethoxy)benzamide], the pIC50 is less than 6.00.
Molecule `CC1CN(c2ccc(C(=O)Nc3cc(-c4nc5ccccc5[nH]4)n(C)n3)cn2)CC(CO)O1` (single isomer, unassigned) [Compound A-295, N-[5-(1H-benzimidazol-2-yl)-1-methyl-pyrazol-3-yl]-6-[2-(hydroxymethyl)-6-methyl-morpholin-4-yl]pyridine-3-carboxamide] had a pIC50 of more than 7.00.
`COC1CN(c2ccc(C(=O)Nc3cc(-c4nc5ccccc5[nH]4)n(C)n3)cn2)C1` [Compound A-97, N-[5-(1H-benzimidazol-2-yl)-1-methyl-pyrazol-3-yl]-6-(3-methoxyazetidin-1-yl)pyridine-3-carboxamide] gave a pIC50 of 6.52 to 7.00.
`CN1CCN(c2ccc(C(=O)Nc3nc(-c4nc5ccccc5[nH]4)n(C)n3)cc2)CC1` [Compound A-241, N-[5-(1H-benzimidazol-2-yl)-1-methyl-1,2,4-triazol-3-yl]-4-(4-methylpiperazin-1-yl)benzamide]: the pIC50 was 6.00 to 6.52.
As to `C[C@H]1COCCN1c1ccc(C(=O)Nc2cc(-c3nc4ccccc4[nH]3)n(C)n2)cn1` [Compound A-230, N-[5-(1H-benzimidazol-2-yl)-1-methyl-pyrazol-3-yl] -6-[(3S)-3-methylmorpholin-4-yl]pyridine-3-carboxamide], the pIC50 was 6.52 to 7.00.
For `COc1ccc(C(=O)Nc2cc(-c3nc4cc(OCCO)ccc4[nH]3)[nH]n2)cc1Cl` [Compound A-277, 3-chloro-N-[5-[5-(2-hydroxyethoxy)-1H-benzimidazol-2-yl]-1H-pyrazol-3-yl]-4-methoxy-benzamide], the pIC50 is more than 7.00.
In turn, `COC1CN(c2ccc(C(=O)Nc3cc(-c4nc5ccccc5[nH]4)n(CCO)n3)cn2)C1` [Compound A-196, N-[5-(1H-benzimidazol-2-yl)-1-(2-hydroxyethyl)pyrazol-3-yl]-6-(3-methoxyazetidin-1-yl)pyridine-3-carboxamide] gave a pIC50 of less than 6.00.
Consider `Cn1nc(NC(=O)c2ccc(N3CCC4(CC3)COC4)nc2)cc1-c1nc2ccccc2[nH]1` [Compound A-282, N-[5-(1H-benzimidazol-2-yl)-1-methyl-pyrazol-3-yl]-6-(2-oxa-7-azaspiro[3.5]nonan-7-yl)pyridine-3-carboxamide], for which the pIC50 is more than 7.00.
Turning to `COC1CN(c2cnc(C(=O)Nc3cc(-c4nc5ccccc5[nH]4)[nH]n3)cn2)C1` [Compound A-186, N-[5-(1H-benzimidazol-2-yl)-1H-pyrazol-3-yl]-5-(3-methoxyazetidin-1-yl)pyrazine-2-carboxamide], the pIC50 is less than 6.00.
For `O=C(Nc1cc(-c2nc3ccccc3[nH]2)[nH]n1)c1ccc(N2CCOCC2)nc1` [Compound A-41, N-[5-(1H-benzimidazol-2-yl)-1H-pyrazol-3-yl]-6-morpholino-pyridine-3-carboxamide], the pIC50 is more than 7.00.
As to `O=C(O)COc1ccc(C(=O)Nc2cc(-c3nc4ccccc4[nH]3)[nH]n2)cn1` [Compound A-62, 2-[[5-[[5-(1H-benzimidazol-2-yl)-1H-pyrazol-3-yl]carbamoyl]-2-pyridyl]-oxy]acetic acid], the pIC50 is less than 6.00.
Take `COc1cc(F)c2[nH]c(-c3cc(NC(=O)c4ccc(OC)c(Cl)c4)n[nH]3)nc2c1` [Compound A-127, 3-chloro-N-[5-(7-fluoro-5-methoxy-1H-benzimidazol-2-yl)-1H-pyrazol-3-yl]-4-methoxy-benzamide]: the pIC50 is more than 7.00.
`O=C(Nc1cc(-c2nc3ccccc3[nH]2)[nH]n1)c1ccc(N2CC(O)C2)nc1` [Compound A-64, N-[5-(1H-benzimidazol-2-yl)-1H-pyrazol-3-yl]-6-(3-hydroxyazetidin-1-yl)pyridine-3-carboxamide] gave a pIC50 of less than 6.00.
In the case of `COCCNc1ccc(C(=O)Nc2cc(-c3nc4ccccc4[nH]3)[nH]n2)cc1Cl` [Compound A-39, N-[5-(1H-benzimidazol-2-yl)-1H-pyrazol-3-yl]-3-chloro-4-(2-methoxyethylamino)benzamide], the pIC50 is more than 7.00.
As for `O=C(Nc1cc(-c2nc3cc(Br)ccc3[nH]2)[nH]n1)c1ccc(N2CCC(CO)CC2)nc1` [Compound A-89, N-[5-(5-bromo-1H-benzimidazol-2-yl)-1H-pyrazol-3-yl]-6-[4-(hydroxymethyl)-1-piperidyl]pyridine-3-carboxamide], the figure is less than 6.00; as for `Cc1nc(N2CCOC(CO)C2)ccc1C(=O)Nc1cc(-c2nc3ccccc3[nH]2)n(C)n1` (stereo not drawn) [Compound A-262, N-[5-(1H-benzimidazol-2-yl)-1-methyl-pyrazol-3-yl]-6-[2-(hydroxy-methyl)morpholin-4-yl]-2-methyl-pyridine-3-carboxamide], 6.52 to 7.00; as for `Cn1nc(NC(=O)c2ccc(N3CCC4(COC4)C3)nc2)cc1-c1nc2ccccc2[nH]1` [Compound A-268, N-[5-(1H-benzimidazol-2-yl)-1-methyl-pyrazol-3-yl]-6-(2-oxa-7-azaspiro[3.4]octan-7-yl)pyridine-3-carboxamide], 6.52 to 7.00.
In turn, `O=C(Nc1cc(-c2nc3ccccc3[nH]2)[nH]n1)c1ccc(OCCO)c(C(F)(F)F)c1` [Compound A-152, N-[5-(1H-benzimidazol-2-yl)-1H-pyrazol-3-yl]-4-(2-hydroxyethoxy)-3-(trifluoromethyl)benzamide] had a pIC50 of more than 7.00.
Turning to `O=C(Nc1cc(-c2nc3ccccc3[nH]2)[nH]n1)c1ccc(N2CCC3(CCCO3)CC2)nc1` [Compound A-44, N-[5-(1H-benzimidazol-2-yl)-1H-pyrazol-3-yl]-6-(1-oxa-8-azaspiro[4.5]decan-8-yl)pyridine-3-carboxamide], the pIC50 was more than 7.00.
As for `Cn1nc(NC(=O)c2ccc(N3CCN(CCO)CC3)nc2)cc1-c1nc2cccc(F)c2[nH]1` [Compound A-158], the pIC50 was 6.52 to 7.00.
As for `CN1CCN(c2ccc(C(=O)Nc3cc(-c4nc5ccccc5[nH]4)n(C)n3)cn2)CC1CO` (stereo not drawn) [Compound A-263, N-[5-(1H-benzimidazol-2-yl)-1-methyl-pyrazol-3-yl]-6-[3-(hydroxy-methyl)-4-methyl-piperazin-1-yl]pyridine-3-carboxamide], the figure is 6.52 to 7.00; as for `COc1ccc(C(=O)Nc2cc(-c3nc4ccccc4[nH]3)no2)cc1Cl` [Compound A-30, N-[3-(1H-benzimidazol-2-yl)isoxazol-5-yl]-3-chloro-4-methoxy-benzamide], less than 6.00.
As for `Cn1nc(NC(=O)c2ccc(N3CCN(C4COC4)CC3)nc2)cc1-c1nc2ccccc2[nH]1` [Compound A-203, N-[5-(1H-benzimidazol-2-yl)-1-methyl-pyrazol-3-yl]-6-[4-(oxetan-3-yl)piperazin-1-yl]pyridine-3-carboxamide], the figure is 6.52 to 7.00; as for `Cn1nc(NC(=O)c2ccc(OCCO)c(Cl)c2)cc1-c1nc2ccccc2[nH]1` [Compound A-202, N-[5-(1H-benzimidazol-2-yl)-1-methyl-pyrazol-3-yl]-3-chloro-4-(2-hydroxyethoxy)benzamide], more than 7.00; as for `COc1cc(F)c2[nH]c(-c3cc(NC(=O)c4ccc(N5CC(OC)C5)nc4)n[nH]3)nc2c1` [Compound A-188, N-[5-(7-fluoro-5-methoxy-1H-benzimidazol-2-yl)-1H-pyrazol-3-yl]-6-(3-methoxyazetidin-1-yl)pyridine-3-carboxamide], less than 6.00.
For `Cn1nc(NC(=O)c2ccc(OCCO)c(C(F)(F)F)c2)cc1-c1nc2ccccc2[nH]1` [Compound A-223, N-[5-(1H-benzimidazol-2-yl)-1-methyl-pyrazol-3-yl]-4-(2-hydroxyethoxy)-3-(trifluoromethyl)benzamide], the pIC50 was more than 7.00.
In turn, `COc1cc(F)c2[nH]c(-c3cc(NC(=O)c4ccc(N5CCN(C)CC5)nc4)nn3C)nc2c1` [Compound A-191, N-[5-(7-fluoro-5-methoxy-1H-benzimidazol-2-yl)-1-methyl-pyrazol-3-yl]-6-(4-methylpiperazin-1-yl)pyridine-3-carboxamide] gave a pIC50 of 6.52 to 7.00.
As for `Cn1nc(NC(=O)c2ccc(N3CCN4C(=O)OCC4C3)nc2)cc1-c1nc2ccccc2[nH]1` (stereo not drawn) [Compound A-276, N-[5-(1H-benzimidazol-2-yl)-1-methyl-pyrazol-3-yl]-6-(3-oxo-5,6,8,8a-tetrahydro-1H-oxazolo[3,4-a]pyrazin-7-yl)pyridine-3-carboxamide], the figure is more than 7.00.
As for `COc1ccc(C(=O)Nc2cc(-c3cn4ccc(C)cc4n3)[nH]n2)cc1Cl` [Compound A-163, 3-chloro-4-methoxy-N-[5-(7-methylimidazo[1,2-a]pyridin-2-yl)-1H-pyrazol-3-yl]benzamide], the figure is 6.00 to 6.52; as for `Cn1nc(NC(=O)c2ccc(N3CC4CC(C3)N4)nc2)cc1-c1nc2ccccc2[nH]1` [Compound A-284, N-[5-(1H-benzimidazol-2-yl)-1-methyl-pyrazol-3-yl]-6-(3,6-diazabicyclo[3.1.1]heptan-3-yl)pyridine-3-carboxamide], 6.52 to 7.00; as for `COc1ccc(C(=O)Nc2n[nH]c(-c3nc4ccccc4[nH]3)c2Cl)cc1Cl` [Compound A-74, N-[5-(1H-benzimidazol-2-yl)-4-chloro-1H-pyrazol-3-yl]-3-chloro-4-methoxy-benzamide], less than 6.00.
`Cn1nc(NC(=O)c2ccc(N3CCC(O)CC3)nc2)cc1-c1nc2cccc(F)c2[nH]1` [Compound A-134] showed a pIC50 of 6.52 to 7.00.
